3 molecules from patent publication US9844546B2, “Antibody against human HIF hydroxylase” (OXFORD UNIVERSITY INNOVATION LIMITED, priority 2001, dated 2017) can be followed below.

Like-named read-outs stand apart in the source and are kept apart here.

The test system of experiment [1] is clavaminate synthase. Kind of experiment: Clavaminate synthase inhibition under standard assay conditions. In kind it is biochemical, Streptomyces clavligerus. From the text:
These are commonly methyl or ethyl esters although others are possible.

Experiment [2] concerns HIF-α prolyl-hydroxylase (HIF-PH) of cell extract. Kind of experiment: Modifying activity (HIF-PH) of cell extract on HIF substrate (Gal/HIF-1α549-582/VP16 or 19:WT), pVHL capture assay. The class given is biochemical, mammalian. On the procedure:
The unlabelled HIF-1α substrate was immunopurified on beads, washed, and aliquots incubated under different test conditions in buffer or cell extract. After further washing, the beads were assayed for ability to interact with 35-S labelled pVHL IVTT (21) which was then visualised by fluorography.
The capture of labelled pVHL by different HIF substrates was monitored after exposure to various test conditions.
We went on to test a series of 2-oxoglutarate analogues which act as competitive inhibitors of this class of enzyme (29) for ability to inhibit HIF-PH as assessed by the ability of cell extracts to modify either HIF polypeptide (19:WT) or a HIF fusion protein (Gal/HIF-1α549-582/VP16) so as to promote pVHL capture. […] In one such experiment the effect of N-oxalylglycine on pVHL capture by a biotinylated HIF polypeptides as substrate was monitored. The WT:19 and 19:Pro564Hyp polypeptides described above were used as substrates. […] The effect of dimethyl-oxalyglycine on HIF-1α expression was also studied. HIF-1α immunoblot analysis of extracts of Hep3B and U2OS cells exposed to dimethyl-oxalylgylcine (0, 0.1 or 1.0 mM) for 6 hours was carried out. […]

Experiment [3] has as its system HIF hydroxylase (HPH activity). Kind of experiment: HIF hydroxylase (HPH) inhibition, statements of the description. The class given is biochemical.
The target in experiment [4] is T1, HIF-1/VHL-1 interaction promoting activity of worm extract (Caenorhabditis elegans, UniProt G5EBV0).
T1 construct: from tissue; host or cells: whole-worm homogenate in hypotonic extraction buffer
T1 sequence (G5EBV0 whole entry): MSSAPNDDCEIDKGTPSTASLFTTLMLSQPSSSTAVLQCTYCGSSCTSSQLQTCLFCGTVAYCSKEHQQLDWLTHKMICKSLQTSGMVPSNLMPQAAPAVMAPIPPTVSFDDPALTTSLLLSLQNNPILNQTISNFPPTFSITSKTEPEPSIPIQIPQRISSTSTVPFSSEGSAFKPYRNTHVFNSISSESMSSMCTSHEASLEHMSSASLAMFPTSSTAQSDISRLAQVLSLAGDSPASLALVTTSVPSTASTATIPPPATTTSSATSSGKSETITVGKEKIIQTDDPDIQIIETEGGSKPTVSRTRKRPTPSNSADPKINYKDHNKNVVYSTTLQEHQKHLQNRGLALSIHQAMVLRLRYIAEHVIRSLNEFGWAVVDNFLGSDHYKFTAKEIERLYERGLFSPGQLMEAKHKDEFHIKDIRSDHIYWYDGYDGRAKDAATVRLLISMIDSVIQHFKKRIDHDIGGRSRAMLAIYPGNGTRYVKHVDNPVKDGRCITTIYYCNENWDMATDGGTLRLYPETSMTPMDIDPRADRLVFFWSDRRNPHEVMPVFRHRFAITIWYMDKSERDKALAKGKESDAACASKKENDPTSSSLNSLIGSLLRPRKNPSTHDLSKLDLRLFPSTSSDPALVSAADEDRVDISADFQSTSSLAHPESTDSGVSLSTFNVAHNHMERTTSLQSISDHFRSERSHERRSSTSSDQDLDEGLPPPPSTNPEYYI
Kind of experiment: Worm extract modification of C. elegans HIF-1, HA.VHL-1 interaction assay. The settings on record: antagonized by 5 mM 2-OG. In kind it is biochemical. On the procedure:
Assays for interaction between recombinant VHL and HIF polypeptides conformed to the following experimental design. Recombinant VHL and HIF polypeptides were produced separately in vitro. The HIF polypeptide was then pre-incubated with extract or a recombinant enzyme as described below, then mixed with VHL and incubated in EBC buffer (50 mM Tris pH 7.5, 150 mM NaCl, 0.5% v/v Igepal, 0.5 mM EDTA) at 4° C. for 1 hour, before immunoprecipitation with anti HA antibodies (for HA tagged VHL) or anti Gal antibodies (for Gal4HIF fusions) and analysis by PAGE (Jaakkola et al. (2001) supra).
Preincubation of C. elegans HIF-1 with worm extract or recombinant EGL-9 was for 30 min at 25° C. Preincubation of mammalian HIF-α polypeptides with cell extract or recombinant enzymes was at 37° C. for 10-30 min unless otherwise stated. For assays of recombinant enzymes, 2-oxoglutarate (2 mM), iron (100 μM), and ascorbate (2 mM) were added to the reaction buffer unless otherwise indicated. Reactions performed in hypoxia were in the stated atmospheric oxygen concentration (balance nitrogen) obtained using a controlled environment Invivo2 400 hypoxia work-station (Ruskinn Technologies) and buffers pre-equilibrated with the appropriate atmosphere. Reactions (50 μl) were performed in open Eppendorf tubes with mixing and stopped by the addition of 20 volumes desferrioxamine (100 μM}. […]

Experiment [5] relates to U2OS cells. Put plainly: U2OS cells stably transfected with doxycycline-inducible NODD or CODD. The class given is cell-based, human. The settings on record: doxycycline 0.2-3.2 μg/ml, peaking after 48 hours. On the procedure:
To explore further the therapeutic potential of NODD and CODD polypeptides to activate endogenous HIF we stably transfected U2OS cells with doxycycline-inducible NODD (doxNODD) and CODD constructs (doxCODD) encoding identical sequences to those used for transient transfections.
Cells stably transfected with NODD or CODD controlled by the tetracycline-inducible system were exposed to doxycycline. Cell extracts were prepared 0, 16, 24 and 48 hours after exposure to doxycycline. The extracts of doxNODD (HIF-1α aa343-417), doxCODD (HIF-1α aa549-82) and control cells (empty vector) were then immunoblotted for HIF-1α protein. Increased HIF-1α signals were detected from 16-48 hours following doxycycline administration in doxNODD and doxCODD cells but not in empty vector cells. Levels of HIF-1α induced by hypoxia were also measured for comparison. The endogenous HIF-1α induction was doxycycline dose (0.2-3.2 μg/ml) and time dependent, peaking after 48 hours. Maximal levels were about 20% and about 70% of HIF-1α levels seen following hypoxic or DFO treatment of the doxNODD and doxCODD cells respectively. […]
Stably transfected cell lines were generated by transfecting U2OS cells bearing the reverse tetracycline responsive transactivator ^34 and the tetKRAB silencer construct ^36 with pUHD/HIF plasmids. Following selection in G418 (1 mg/ml) individual colonies were picked. DoxNODD (F21) and doxCODD (myc19) clones expressed pUHD/HIF-1aa343-417/3NLS/c-myc and pUHD/HIF-1α aa549-82/3NLS/c-myc respectively. […]
Cell extracts were prepared in buffer (8M urea, 10% glycerol, 1% SDS, 5 mM DTT, 10 mM Tris/pH 6.8), separated by SDS-PAGE and transferred to Immobilon-P membrane (Millipore). Primary antibodies against HIF-1α, c-myc tag and HA tag were from Transduction Laboratories, Innogenex and Roche Molecular respectively. […]

Experiment [6] has as its system U2OS and Hep3B cells. Kind of experiment: HRE-dependent luciferase reporter assay after transient transfection of NODD/CODD plasmids. The class given is cell-based, human. The settings on record: normoxic conditions, 24 hours. The source says: Since normoxic HIFα degradation is saturable ^17 and depends on sub-regions within the ODD we tested whether peptides encoding the HIF-1α amino terminal ODD (NODD) and carboxy terminal ODD (CODD) ^21 could affect HIF activity as measured by hypoxia response element (HRE)-dependent reporter gene expression. Briefly, Degradation is prevented by the NODD and CODD polypeptides competing for prolyl hydroxylation and/or VHL binding, thereby blocking subsequent ubiquitination. We constructed plasmids encoding NODD (HIF-1-α aa 343-417) or CODD (HIF-1-α aa 549-582) linked to nuclear localisation sequences and a c-myc epitope tag. These plasmids were transiently co-transfected into U2OS and Hep3B cells with an HRE-dependent luciferase reporter plasmid. […]
For reporter gene assays DNA fragments encoding HIF-1α amino acids 343-417, 380-417, 390-417, 390-410, 343-400, 530-95, 530-82, 549-82, 556-74 and 530-62 were generated by PCR using oligonucleotides containing 5′ SacII or 3′ AscI sites and inserted into a pCMV/myc/nuc (Invitrogen) derivative bearing these sites in frame with the NLS and epitope tag. […] To generate tet-operator dependent plasmids the open reading frames from the aa343-417 and aa549-82 constructs were subcloned into pUHD 10 ^34. […]

The target of experiment [7] is T2, VHL E3 ubiquitin ligase (Homo sapiens, UniProt P40337).
T2 construct: expressed in transfected cells; host or cells: 786-0 cells stably transfected with pcDNA3 VHL.HA (whole extract, anti-HA immunoprecipitation)
T2 sequence (P40337 whole entry): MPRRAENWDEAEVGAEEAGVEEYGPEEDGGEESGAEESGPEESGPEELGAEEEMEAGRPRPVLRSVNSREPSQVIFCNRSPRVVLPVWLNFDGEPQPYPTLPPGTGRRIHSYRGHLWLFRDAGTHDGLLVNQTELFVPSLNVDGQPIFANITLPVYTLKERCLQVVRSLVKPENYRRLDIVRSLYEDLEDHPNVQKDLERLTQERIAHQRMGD
T2 sequence (Q15370 whole entry partner): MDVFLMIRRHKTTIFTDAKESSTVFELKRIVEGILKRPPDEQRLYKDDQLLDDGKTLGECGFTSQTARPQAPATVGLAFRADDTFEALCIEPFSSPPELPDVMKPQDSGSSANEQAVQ
T2 sequence (Q15369 whole entry partner): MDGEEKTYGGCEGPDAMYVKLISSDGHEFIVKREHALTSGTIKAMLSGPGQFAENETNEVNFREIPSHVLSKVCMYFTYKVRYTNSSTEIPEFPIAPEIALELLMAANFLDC
T2 sequence (Q13617 whole entry partner): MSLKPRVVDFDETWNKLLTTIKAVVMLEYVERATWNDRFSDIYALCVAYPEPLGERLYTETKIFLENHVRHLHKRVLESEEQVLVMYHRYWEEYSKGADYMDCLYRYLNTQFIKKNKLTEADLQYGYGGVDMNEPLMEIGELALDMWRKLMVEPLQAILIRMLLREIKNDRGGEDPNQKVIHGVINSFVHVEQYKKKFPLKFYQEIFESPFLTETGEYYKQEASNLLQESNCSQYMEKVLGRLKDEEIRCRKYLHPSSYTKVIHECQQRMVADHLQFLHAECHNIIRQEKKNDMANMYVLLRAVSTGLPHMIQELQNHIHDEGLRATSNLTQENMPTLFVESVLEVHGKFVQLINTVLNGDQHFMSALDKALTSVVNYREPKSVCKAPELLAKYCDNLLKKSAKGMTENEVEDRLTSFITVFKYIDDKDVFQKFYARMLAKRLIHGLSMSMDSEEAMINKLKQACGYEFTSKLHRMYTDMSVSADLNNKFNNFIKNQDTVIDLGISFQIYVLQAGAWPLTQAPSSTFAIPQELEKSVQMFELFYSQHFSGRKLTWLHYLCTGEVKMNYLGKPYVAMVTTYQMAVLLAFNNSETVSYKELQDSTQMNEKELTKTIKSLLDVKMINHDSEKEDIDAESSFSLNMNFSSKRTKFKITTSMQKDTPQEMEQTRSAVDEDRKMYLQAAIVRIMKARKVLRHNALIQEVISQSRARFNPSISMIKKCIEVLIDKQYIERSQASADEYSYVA
T2 sequence (P62877 whole entry partner): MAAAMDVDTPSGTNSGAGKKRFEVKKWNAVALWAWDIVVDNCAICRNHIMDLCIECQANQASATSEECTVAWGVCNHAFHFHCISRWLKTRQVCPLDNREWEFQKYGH
Put plainly: VHL E3 interaction assay with 35S-labelled tat-ODD IVTT products. The class given is binding. Conditions: after modification by cell extracts. The source says: Concordant with the ubiquitination assays discussed above NODD (HIF-1α 343-417) and CODD (HIF-1α 549-582) polypeptides, but not their corresponding proline mutants (HIF-1α 343-417/P402A and HIF-1α 549-582/P564G), bound to VHL E3 ubiquitin ligase after modification by cell extracts. The ^35S-methionine labelled recombinant polypeptides therefore interacted with VHL, supporting the results of the ubiquitination experiments discussed above. The interaction was enhanced by the presence of cell extracts which promote hydroxylation of the prolines at positions 402 and 564 ^19. In contrast, no binding occurred using peptides in which prolines were mutated.
For VHL E3 interaction assays ^35S-methionine labelled HIF-1a substrates were prepared by transcription/translation using TnT7 rabbit reticulocyte lysate (Promega). 100 μM DFO was added to the reaction to suppress prolyl hydroxylase activity of the reticulocyte lysate. Substrate modification was achieved by incubation of HIF-1α translate with RCC4 cell lysate in the presence of ferrous chloride (100 μM). Interaction with VHL E3 was analysed as described previously ^21.

On to `O=C(O)CNC(=O)CCS` [N-(Mercaptopropionyl)glycine], for which, in experiment [1], the “inhibition of clavaminate synthase” value was “not an inhibitor”. In addition, the figures for the “pVHL binding after treatment with cell extract in the presence of inhibitor” value in experiment [2] (1 mM) and in experiment [2] (5 mM) were “strong binding of pVHL” and “reduced the amount of pVHL binding”, respectively. For the same molecule, the “inhibition of HIF hydroxylase / HPH” value in experiment [3] is listed as “inhibitors of HPH”.
For `C[C@H](NC(=O)C(=O)O)C(=O)O` [N-oxalyl-2S-alanine], the “inhibitory activity on HIF-1α modification, comparison of enantiomers” value in experiment [2] (0-2000 μM, RCC4 cell extract) is reported as “higher inhibitory activity”. Also, the “inhibition of worm extract activity promoting HIF-1/HA.VHL-1 interaction” value in experiment [4] is on record as “strongly inhibited activity”. Further, the “inhibition of HIF hydroxylase / HPH” value was “act as inhibitors” in experiment [3] and “preferred inhibitor” in experiment [3] (listed as (S) oxaloalanine).

B1: NODD: HIF-1α amino terminal ODD polypeptide (aa 343-417) with nuclear localisation sequences and c-myc tag, plasmid expressed (protein, UniProt Q16665 343-417, looked up, fragment)
chain: SGIIQHDLIFSLQQTECVLKPVESSDMKMTQLFTKVESEDTSSLFDKLKKEPDALTLLAPAAGDTIISLDFGSND
modifications: NLS and c-myc tag
As for B1, the “Maximal HIF-1α level relative to hypoxic or DFO treatment” value in experiment [5] is reported as “about 20%”. For the same molecule, the “HRE-dependent relative luciferase activity” value in experiment [6] is on record as “increased relative luciferase activity”. Further, the “binding to VHL E3 ubiquitin ligase” value in experiment [7] is “bound”.
